Data on 24 molecules can be found in patent US5348953A, “Substituted azetidinones as anti-inflammatory and antidegenerative agents” (Merck & Co., Inc., priority 1992, dated 1994).

One assay concerns the target T1, Human Polymorphonuclear Leukocyte Elastase (Homo sapiens, UniProt P08246).
T1 construct: Crude extract of human polymorphonuclear leukocytes (PMN) containing elastase activity; from tissue; host or cells: human polymorphonuclear leukocytes (crude extract)
T1 sequence (P08246 30-267): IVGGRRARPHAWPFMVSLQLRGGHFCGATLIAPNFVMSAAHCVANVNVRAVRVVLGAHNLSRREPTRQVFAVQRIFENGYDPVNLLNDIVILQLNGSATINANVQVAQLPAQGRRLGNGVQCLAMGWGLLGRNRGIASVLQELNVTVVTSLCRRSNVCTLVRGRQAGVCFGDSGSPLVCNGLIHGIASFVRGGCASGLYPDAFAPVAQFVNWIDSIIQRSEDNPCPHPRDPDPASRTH
In words: Inhibition of human polymorphonuclear leukocyte elastase via hydrolysis of Boc-AAPAN or Boc-AAPVN. It is filed as biochemical. Conditions: pH 7.5; second order rate constant for inactivation; Formula A, M n-propyl, R2 4-methyl (TABLE 1); read-out: kobs /[I]. As to the method: Enzyme Assays for the Inhibition of Human Polymorphonuclear Leukocyte
Elastase Via Hydrolysis of
N-t-Boc-alanyl-alanyl-prolylalanine-p-nitroanilide (Boc-AAPAN) or
N-t-Boc-alanyl-prolylvaline-p-nitroanilide (Boc-AAPVN) Reagent:
0.05M TES (N-tris[hydroxymethyl]methyl-2-amino-ethanesulfonic acid) Buffer, pH 7.5.
0.2 mM Boc-AAPAN or Boc-AAPVN.
To prepare substrate, the solid was first dissolved in 10.0 ml DMSO. Buffer at pH 7.5 was then added to a final volume of 100 ml.
Crude extract of human polymorphonuclear leukocytes (PMN) containing elastase activity.
Inhibitors (azetidinones) to be tested dissolved in DMSO just before use.
To 1.0 ml of 0.2 mM Boc-AAPAN in a cuvette, 0.01-0.1 ml of DMSO with or without inhibitor was added. After mixing, a measurement was taken at 410 mμ to detect any spontaneous hydrolysis due to presence of test compound. 0.05 Milliliters of PMN extract was then added and the ΔOD/min at 410 mμ was measured and recorded. Beckman model 35 spectrophotometer was used.
Results in Table I were reported as ID50, effective dosage in micrograms per milliliter (μg/ml) for 50% inhibition of the enzyme activity 2 minutes after zero time.
Results were also expressed as Ki, the micromolar concentration of the inhibitor (μM) giving 50% of the control enzyme activity; or as ^k obs/I which is the second order rate constant in per mole per second for inactivation of the enzyme.
The elastase activity in the crude PMN extract may vary from one preparation to another. A control of each new batch is run, and the volume added in the assay procedure is adjusted according to activity.
Turning to `CCC[C@@H](NC(=O)N1C(=O)C(CC)(CC)[C@@H]1OCC(=O)N(CC)CCN(CCOCC)C(C)C)c1ccc(C)cc1`, the kinact/KI came to 195000 M⁻¹ s⁻¹.
The same measure, in the same setting: the value for `CCC[C@@H](NC(=O)N1C(=O)C(CC)(CC)[C@@H]1OCC(=O)N1CCOCC1)c1ccc(C)cc1` was 400000 M⁻¹ s⁻¹; that for `CCC[C@@H](NC(=O)N1C(=O)C(CC)(CC)[C@@H]1OCC(=O)N(C)CCN1C(C)CCCC1C)c1ccc(C)cc1` (stereo partly drawn) [2-(S)-[2-[[2-(2,6-dimethylpiperidin-1-yl)ethyl]-methylamino]-2-oxoethoxy]-3,3-diethyl-N-[1-(R)-(4-methylphenyl)butyl] -4-oxo-1-azetidinecarboxamide] was 80000 M⁻¹ s⁻¹.
Still for that read-out and setting: next, `CCC[C@@H](NC(=O)N1C(=O)C(CC)(CC)[C@@H]1OCC(=O)N(C)CCN(CCOCC)C(C)C)c1ccc(C)cc1` [2-(S)-[2-[[2-((2-Ethoxyethyl)-isopropylamino)ethyl]methylamino]-2-oxoethoxy]-3,3-diethyl-N-[1-(R)-(4-methylphenyl)butyl]-4-oxo-1-azetidinecarboxamide]: 140000 M⁻¹ s⁻¹.
The same measure, in the same setting: the value for `CCC[C@@H](NC(=O)N1C(=O)C(CC)(CC)[C@@H]1OCC(=O)N(CCC)CCN(CCOCC)C(C)C)c1ccc(C)cc1` [2-(S)-[2-[[2-((2-Ethoxyethyl)-isopropylamino)ethyl]propylamino]-2-oxoethoxy]-3,3-diethyl-N-[1-(R)-(4-methylphenyl)butyl]-4-oxo-1-azetidinecarboxamide] was 185000 M⁻¹ s⁻¹; that for `CCC[C@@H](NC(=O)N1C(=O)C(CC)(CC)[C@@H]1OCC(=O)N(CCN(CC)CCOC)C(C)C)c1ccc(C)cc1` [2-(S)-[2-[[2-((2-Methoxyethyl)-ethylamino)ethyl]-isopropylamino]-2-oxoethoxy]-3,3-diethyl-N-[1-(R)-(4-methylphenyl)butyl]-4-oxo-1-azetidinecarboxamide] was 250000 M⁻¹ s⁻¹.
Regarding `CCC[C@@H](NC(=O)N1C(=O)C(CC)(CC)[C@@H]1OCC(=O)N(CC)CCN(CC)CCOC)c1ccc(C)cc1` [2-(S)-[2-[[2-((2-Methoxyethyl)-ethylamino)ethyl]ethylamino]-2-oxoethoxy]-3,3-diethyl-N-[1-(R)-(4-methylphenyl)butyl]-4-oxo-1-azetidinecarboxamide], the kinact/KI was 185000 M⁻¹ s⁻¹.
In the case of `CCC[C@@H](NC(=O)N1C(=O)C(CC)(CC)[C@@H]1OCC(=O)N(C)CCN(CC)CCOC)c1ccc(C)cc1` [2-(S)-[2-[[2-((2-Methoxyethyl)-ethylamino)ethyl]methylamino]-2-oxoethoxy]-3,3-diethyl-N-[1-(R)-(4-methylphenyl)butyl]-4-oxo-1-azetidinecarboxamide], the kinact/KI amounted to 110000 M⁻¹ s⁻¹.
On the same count and under the same terms, next, `CCC[C@@H](NC(=O)N1C(=O)C(CC)(CC)[C@@H]1OCC(=O)N(C)CCN(CCOC)CCOC)c1ccc(C)cc1` [2-(S)-[2-[[2-(Di-(2-methoxyethyl)amino)ethyl]methylamino]-2-oxoethoxy]-3,3-diethyl-N-[1-(R)-(4-methylphenyl)butyl]-4-oxo-1-azetidinecarboxamide]: 165000 M⁻¹ s⁻¹; `CCC[C@@H](NC(=O)N1C(=O)C(CC)(CC)[C@@H]1OCC(=O)N(CC)CCN1CCOCC1)c1ccc(C)cc1` [2-(S)-[2-[[2-(Morpholin-1-yl)ethyl]ethylamino]-2oxoethoxy]-3,3-diethyl-N-[1-(R)-(4-methylphenyl)butyl]-4-oxo-1-azetidinecarboxamide]: 245000 M⁻¹ s⁻¹; `CCC[C@@H](NC(=O)N1C(=O)C(CC)(CC)[C@@H]1OCC(=O)N(CC)CCN(CC)CC)c1ccc(C)cc1` [Y=N(Et)CH2 CH2; R5=H; R7=Et; R8=Et, 2-(S)-[2-[[2-(Diethylamino)ethyl]ethylamino]-2-oxoethoxy]-3,3-di ethyl-N-[1-(R)-(4-methylphenyl)butyl]-4-oxo-1-azetidinecarboxamide]: 177000 M⁻¹ s⁻¹.
Still for that read-out and setting: next, `CCC[C@@H](NC(=O)N1C(=O)C(CC)(CC)[C@@H]1OCC(=O)N(CC)CCN(C(C)C)C(C)C)c1ccc(C)cc1` [Y=N(Et)CH2 CH2; R5=H; R7=iPr; R8=iPr, 2-(S)-[2-[[2-(Diisopropylamino)ethyl]ethylamino]-2-oxoethoxy]-3,3-diethyl-N-[1-(R)-(4-methylphenyl)butyl]-4-oxo-1-azetidinecarboxamide]: 189000 M⁻¹ s⁻¹.
Take `CCC[C@@H](NC(=O)N1C(=O)C(CC)(CC)[C@@H]1O[C@@H](C)C(=O)N(CC)CCN(C)C)c1ccc(C)cc1` [Y=N(Et)CH2 CH2; R5=Me; R7=Me; R8=Me, 2-(S)-[2-[[2-(Dimethylamino)ethyl]ethylamino]-2-oxo-(1-(S)-methyl)ethoxy]-3,3-diethyl-N-[1-(R)-(4-methylphenyl)butyl]-4-oxo-1-azetidinecarboxamide]: the kinact/KI stood at 1.77e+06 M⁻¹ s⁻¹.
On the same count and under the same terms, next, `CCC[C@@H](NC(=O)N1C(=O)C(CC)(CC)[C@@H]1OCC(=O)N(C)CCCN(C)C)c1ccc(C)cc1` [Y=N(Me)CH2 CH2 CH2; R5=H; R7=Me; R8=Me, 2-(S)-[2-[[3-(Dimethylamino)propyl]methylamino]-2-oxoethoxy]-3,3-diethyl-N-[1-(R)-(4-methylphenyl)butyl]-4-oxo-1-azetidinecarboxamide]: 115000 M⁻¹ s⁻¹; `CCC[C@@H](NC(=O)N1C(=O)C(CC)(CC)[C@@H]1OCC(=O)N(C)CCN(CC)CC)c1ccc(C)cc1` [Y=N(Me)CH2 CH2; R5=H; R7=Et; R8=Et, 2-(S)-[2-[[2-(Diethylamino)ethyl]methylamino]-2oxoethoxy]-3,3-diethyl-N-[1-(R)-(4-methylphenyl)butyl]-4-oxo-1-azetidinecarboxamide]: 150000 M⁻¹ s⁻¹.

The same assay, now with this note: pH 7.5; second order rate constant; Formula A, M n-propyl, R2 3,4-methylenedioxy; read-out: kobs /[I].
For the molecule `CCC[C@@H](NC(=O)N1C(=O)C(CC)(CC)[C@@H]1OCC(=O)N(CC)CCN(C)CCOC)c1ccc2c(c1)OCO2` [2-(S)-[2-[[2-(2-Methoxyethyl)methylamino)ethy]ethylamino]-2-oxoethoxy]-3,3-diethyl-N-[1-(R)-(3,4-methylenedioxyphenyl)butyl]-4-oxo-1-azetidine carboxamide], the kinact/KI is 450000 M⁻¹ s⁻¹.
On the same count and under the same terms, next, `CCC[C@@H](NC(=O)N1C(=O)C(CC)(CC)[C@@H]1OCC(=O)N(CC)CCN(C)C)c1ccc2c(c1)OCO2` [2-(S)-[2-[[2-(Dimethylamino)ethy]-ethylamino]-2-oxoethoxy]-3,3-diethyl-N-[1-(R)-(3,4-methylenedioxyphenyl)butyl]-4-oxo-1-azetidinecarboxamide]: 425000 M⁻¹ s⁻¹; `CCC[C@@H](NC(=O)N1C(=O)C(CC)(CC)[C@@H]1OCC(=O)N(CCN(C)C)C(C)C)c1ccc2c(c1)OCO2` [2-(S)-[2-[[2-(Dimethylamino)ethyl]-isopropylamino]-2-oxoethoxyl]-3,-3-diethyl-N-[1-(R)-(3,4-methylenedioxyphenyl)-butyl]-4-oxo-1-azetidinecarboxamide]: 500000 M⁻¹ s⁻¹.

The same assay, now with this note: pH 7.5; second order rate constant; Formula A, M n-propyl, R4 piperazine amide with substituent Z; read-out: kobs /[I].
In the case of `CCC[C@@H](NC(=O)N1C(=O)C(CC)(CC)[C@@H]1OCC(=O)N1CCN(C2CC2)CC1)c1ccc2c(c1)OCO2` [2-(S)-[2-[2-(4-Cyclopropyl)piperazin-1-yl]-2-oxoethoxy]-3,3-diethyl-N-[1-(R)-(3,4-methylenedioxyphenyl)-butyl]-4-oxo-1-azetidinecarboxamide], the kinact/KI is 560000 M⁻¹ s⁻¹.
Still for that read-out and setting: next, `CCC[C@@H](NC(=O)N1C(=O)C(CC)(CC)[C@@H]1OCC(=O)N1CCN(C)CC1)c1ccc2c(c1)OCO2` [R2=3,4-methylenedioxy-; R5=H; Z=--Me, 2-(S)-[2-[2-(4-Methyl)piperazin-1-yl]-2-oxoethoxy]-3,-3-diethyl-N-[1-(R)-(3,4-methylenedioxyphenyl)-butyl]-4-oxo-1-azetidinecarboxamide]: 530000 M⁻¹ s⁻¹; `CCC[C@@H](NC(=O)N1C(=O)C(CC)(CC)[C@@H]1OCC(=O)N1CCNCC1)c1ccc2c(c1)OCO2` [R2=3,4-methylenedioxy-; R5=H; Z=H]: 515000 M⁻¹ s⁻¹.
Still for that read-out and setting: the value for `CCC[C@@H](NC(=O)N1C(=O)C(CC)(CC)[C@@H]1OCC(=O)N1CCN(CCO)CC1)c1ccc(C)cc1` [R2=4-Me; R5=H; Z=CH2 CH2 OH, 2-(S)-[2-[2-(4-(2-Hydroxy)ethyl)piperazin-1-yl]-2-oxoethoxy]-3,-3-diethyl-N[1-(R)-(4-methylphenyl)-butyl]-4-oxo-1-azetidinecarboxamide] was 300000 M⁻¹ s⁻¹; that for `CCC[C@@H](NC(=O)N1C(=O)C(CC)(CC)[C@@H]1OCC(=O)N1CCNCC1)c1ccc(C)cc1` [R2=4-Me; R5=H; Z=H] was 250000 M⁻¹ s⁻¹.
Still for that read-out and setting: the value for `CCC[C@@H](NC(=O)N1C(=O)C(CC)(CC)[C@@H]1OCC(=O)N1CCN(C2CC2)CC1)c1ccc(C)cc1` [R2=4-Me; R5=H; Z=cyclopropyl, 2-(S)-[2-[2-(4-Cyclopropyl)piperazin-1-yl]-2-oxoethoxy]-3,-3-diethyl-N-[1-(R)-(4-methylphenyl)-butyl]-4-oxo-1-azetidinecarboxamide] was 225000 M⁻¹ s⁻¹.
